PubChem BioAssay AID1996
In brackets after ≈: the same amount, converted by molar mass.

Settings: buffer; pH 7.4; 200.0 µM

SMILES	solubility kinetic [µg/mL]
Cc1ccc(/C=C/C(=O)O)cc1S(=O)(=O)N1CCCCC1	> 46.4
CCc1nc2sc3c(Cl)ncnc3c2c2c1CCCC2	< 0.2
Cc1ccc(Cl)cc1NC(=O)C1CC(=O)N(C(C)C)C1 (configuration not stated)	34.7 (≈ 118 µM)
COc1cccc(-c2noc(CCCC(=O)N3CCOCC3)n2)c1	> 49.7
N#Cc1cccc(C(=O)Nc2cc(S(=O)(=O)N3CCOCC3)ccc2N2CCCC2)c1	> 66.1
O=C(CN1C(=O)COc2ccccc21)N1CCN(C2CCCCC2)CC1	49.2 (≈ 138 µM)
Cn1c(N)c(C(=O)CSc2nnc3n2CCCCC3)c(=O)n(C)c1=O	> 54.7
N#C/C(=C\Nc1ccccn1)S(=O)(=O)c1ccc(Cl)cc1	0.4 (≈ 1.25 µM)
Cc1cc(C)c2nc(Cl)c(Cl)nc2c1	2.7 (≈ 11.9 µM)
CC1CCC(NC(=O)CN2C(=O)NC(C)(C)C2=O)CC1 (configuration not stated)	> 42.2
N#Cc1ccsc1NC(=O)C1=COCCO1	> 35.4
O=C(COc1ccc(C2SCCS2)cc1)Nc1ccc(Cl)cc1	< 0.8
COC(=O)c1ccc(C)c(NC(=O)CCCN2C(=O)CN(C)C2=O)c1	> 52.1
CC(C)c1ccc(NC(=O)COc2ccc(C3SCCS3)cc2)cc1	4.1 (≈ 11 µM)
Cc1cccc(NS(=O)(=O)c2ccc([N+](=O)[O-])cc2)n1	39.4 (≈ 134 µM)
COc1ccc(-c2noc(CN(Cc3nccn3C)C(C)C)n2)cc1	45.6 (≈ 134 µM)
CCc1cccc(CC)c1-n1c(SCC(=O)N2CCCc3ccccc32)nc(O)cc1=O	> 67.4
COc1ccc(C(CNC(=O)c2cc(C)on2)N(C)C)cc1 (configuration not stated)	45.3 (≈ 149 µM)
COc1ccc(-c2cc3nc4n(c(=O)c3s2)CCCCC4)cc1	< 0.3
CCOC(=O)C1C(c2ccc(Cl)cc2)NC(=S)NC1(O)C(F)(F)F (configuration not stated)	37.8 (≈ 98.7 µM)
N#CC(C(=O)c1ccccc1Cl)=C1SCCCS1	9.4 (≈ 31.8 µM)
ONC(=Nc1ccccc1Cl)c1c(F)cccc1F	19 (≈ 67.2 µM)
COC(=O)C1CCN(C(=O)CN2C(=O)NC3(CCC(C)CC3)C2=O)CC1 (configuration not stated)	> 54.8
CC(C)CCN1CCN(Cc2ccon2)CC1CCO (configuration not stated)	> 42.2
CC(C(=O)O)N1CCCCC1.Cl (configuration not stated)	24.3
O=C(CCc1c[nH]c2ccccc12)NCCc1ccc(Cl)cc1	4.2 (≈ 12.9 µM)
O=C1c2oc3ccccc3c(=O)c2C(c2ccc(O)cc2)N1c1nccs1 (configuration not stated)	0.8 (≈ 2.13 µM)

SMILES	solubility kinetic [µg/mL]
O=C(NCC(c1ccco1)N1CCCC1)c1ccc(-n2cccn2)cc1 (configuration not stated)	> 52.6
CC1CCC(NC(=O)CSc2nncn2C)CC1 (configuration not stated)	> 40.3
Cc1ccccc1OCC(O)CN1CCCCC1.Cl (configuration not stated)	> 42.9
Cc1ccc2nc(-c3ccc(-c4ccccn4)s3)cn2c1	3.2 (≈ 11 µM)
COc1ccc(C)cc1S(=O)(=O)NC1CCCCCC1	4.8 (≈ 16.1 µM)
O=C(NCCN1CCOCC1)c1cc(Cl)ccc1Cl	41 (≈ 135 µM)
CCOC(=O)C1CCCN(C(=O)c2ccc3ncsc3c2)C1 (configuration not stated)	> 47.8
CC1Oc2ccccc2N(CC(=O)NCCN2CCOCC2)C1=O (configuration not stated)	> 50
O=S(=O)(c1ccc(F)cc1)N1CCN(CCc2ccccc2)CC1	4.1 (≈ 11.8 µM)
O=C1C2C3CCC(CC3)C2C(=O)N1c1ccccc1 (configuration not stated)	11.6 (≈ 45.4 µM)
COc1ccc(NC(=O)CN(C)C2CCCCC2)cc1Cl	32.7 (≈ 105 µM)
Cc1ccc(C)c(SCC(=O)N(C)C2CCS(=O)(=O)C2)c1 (configuration not stated)	> 49.1
O=C(CN1CCCC1)Nc1cc(F)ccc1F	35.1 (≈ 146 µM)
O=C1CSC(c2cccc(F)c2)N1c1ccccc1 (configuration not stated)	> 41
Cc1ccccc1NC(=O)CCN1CCN(CCO)CC1	42.4 (≈ 146 µM)
Cc1nc2ccccc2n1Cc1ccc(Cl)cc1	24.9 (≈ 97 µM)
CN(CC(O)CN1CCOCC1)S(=O)(=O)[O-].[Na+] (configuration not stated)	> 41.4
Cc1nc2ccccc2n1Cc1ccc(Br)cc1	37.8 (≈ 126 µM)
Clc1nnc(Cl)c2c1ncn2Cc1ccccc1	> 41.9
O=C(COc1ccc(F)cc1Br)NCCCN1CCCC1=O	> 56
CCn1c(SCc2ccccc2)nc2c1c(=O)[nH]c(=O)n2C	39.3 (≈ 124 µM)
CSCCC(NS(=O)(=O)c1ccccc1F)C(=O)NCC(c1ccco1)N(C)C (configuration not stated)	> 66.5
O=C1N=c2ccccc2=C1c1sc(=S)n(-c2ccc(O)cc2)c1O	0.8 (≈ 2.26 µM)
Cc1ccc(C(=O)O/N=C/c2ccc(N(C)C)cc2)cc1	2.4 (≈ 8.5 µM)
Cc1nc([N+](=O)[O-])cn1C(C)C	> 25.4
O=C(Cc1nc2ccccc2[nH]1)c1ccc(Cl)cc1	24.2 (≈ 89.4 µM)
O=C1CC(Sc2ccc(Cl)cc2)C(=O)N1c1ccc2c(c1)OCCO2 (configuration not stated)	13 (≈ 34.6 µM)

SMILES	solubility kinetic [µg/mL]
Clc1ccc(/C=C/c2ncc[nH]2)c(Cl)c1	7.7 (≈ 32.2 µM)
CSc1ccc(S(=O)(=O)NC2CC2)cc1	> 36.5
O=C(OCc1ccc([N+](=O)[O-])cc1)C1CC(=O)N(Cc2ccccc2)C1 (configuration not stated)	> 53.2
O=C(O)Cn1c(-c2ccccc2)cc2ccccc21	25.3 (≈ 101 µM)
CN(C)CCn1ccc(O)c(Cc2ccc(Cl)cc2)c1=O	44.8 (≈ 146 µM)
CCN(CC)P(=O)(c1nccn1C)N(CC)CC	40.7 (≈ 149 µM)
CN1CCSc2ccc(C(=O)Nc3cccc(F)c3)cc21	1.4 (≈ 4.63 µM)
CC(=O)Nc1ccc(NC(=O)C(C)OC(=O)C2CCC2)cc1 (configuration not stated)	> 45.7
CN(C)C(=O)c1cc(C(=O)c2c(F)cccc2F)c[nH]1	> 41.7
O=S(=O)(Cc1ccco1)Cc1nc(-c2ccc(Cl)cc2)cs1	0.9 (≈ 2.54 µM)
CC1CCCN(CC(O)COCc2ccc3c(c2)OCO3)C1.Cl (configuration not stated)	39
Nc1ccc(N2CCOCC2)c(S(=O)(=O)Nc2ccccc2Cl)c1	31.7 (≈ 86.2 µM)
CCc1ccc(N2CC(C(=O)N3CCCCCC3)CC2=O)cc1 (configuration not stated)	> 47.2
N#C/C(=C/c1cccs1)c1ccccn1	7 (≈ 33 µM)
O=C1CNC(=S)N1Cc1ccc(F)cc1	> 33.6
CCOC(=O)C1CCN(CC(O)COCc2ccc(Cl)cc2)CC1.Cl (configuration not stated)	57.5
CCc1cc(=O)oc2cc(OCC(=O)N3CCC[C@H]3C(=O)O)ccc12	> 51.8
CCOc1ccc(Nc2cc(C)c3ccccc3n2)cc1	< 0.3
O=C(CSc1ccccc1C(=O)N1CCN(c2ccc([N+](=O)[O-])cc2)CC1)N1CCCC1	> 68.2
Cc1ccccc1NC(=O)CCl	26.2 (≈ 143 µM)
COC(=O)/C=C1\SC(=Nc2ccc(OC)cc2)NC1=O	1.9 (≈ 6.5 µM)
COc1ccc2cc(S(=O)(=O)N3CCCC3)ccc2c1	3.5 (≈ 12 µM)
Cc1ccc(CSc2nccc(-c3c(C)nc4ccccn34)n2)cc1	1.6 (≈ 4.62 µM)
O=C1CN(C(=O)NCC(=O)N2CCCC2)c2ccccc2N1	> 45.3
Cc1ccc(S(=O)(=O)N2CCN3CCCC3C2)cc1 (configuration not stated)	> 42.1

Results, then the molecule that gave them:

solubility kinetic [µg/mL]	SMILES
> 45.3	COc1ccc(NC(=O)Nc2nc(C)cc(C)n2)c(OC)c1
1.7 (≈ 5.69 µM)	O=C(Nc1cccc(Cl)c1)Nc1ccc2nccnc2c1
> 49.5	COc1ccccc1C(=O)NC(=O)COC(=O)c1nccnc1N
10.4 (≈ 32.8 µM)	COCc1nc2oc3ccc(F)cc3c(=O)c2cc1C(=O)OC
44.3 (≈ 147 µM)	COc1ccc(C)cc1Nc1ccc(C(=O)O)cc1[N+](=O)[O-]
> 48.8	Cc1cccc(C(=O)Oc2ccccc2C(=O)N2CCOCC2)c1
12 (≈ 35.7 µM)	COc1ccc([N+](=O)[O-])cc1NC(=O)C(C)OC(=O)C1CCCC1 (configuration not stated)
> 32.3	Cc1ccc(C(=O)NCc2ccco2)cc1
< 0.2	COc1cccc(-c2csc(NC(=O)Nc3ccccc3)n2)c1
42.3 (≈ 126 µM)	Cc1ccccc1NC(=O)c1ccc(OCc2c(C)noc2C)cc1
2.1 (≈ 6.82 µM)	NC(=O)c1ccccc1NC(=O)Nc1ccc(F)c(Cl)c1
39.8 (≈ 115 µM)	COc1cccc(NC(=O)COC(=O)CCSc2ccccc2)c1
11 (≈ 36 µM)	COc1ccc(C(N)=O)c(OCC(=O)Nc2cc(C)on2)c1
< 0.8	COc1ccccc1NC(=O)c1cccc2c(Br)cccc12
> 67.1	COc1ccc(S(N)(=O)=O)cc1C(=O)OCC(=O)N1c2ccccc2NC(=O)C1(C)C
> 43.6	CCOC(=O)N1CCN(C(=O)CCc2ccccc2)CC1
> 40.8	C=C(C)C(=O)Nc1cccnc1Oc1ccc(F)cc1
> 46.6	COC(=O)CC1C(=O)NCCN1C(=O)c1ccc(Cl)cc1 (configuration not stated)
9.1 (≈ 31.8 µM)	COc1ccccc1Oc1ccnc2cc(Cl)ccc12
> 45.4	CCOc1ccc(NC(=O)CSc2ccccc2N)cc1
3.1 (≈ 10.5 µM)	O=C(CCCCC(=O)Nc1ccccc1)Nc1ccccc1
> 67.7	CCOc1ccc(/C=C(\C(=O)O)c2ccc(S(=O)(=O)N3CCCCC3)s2)cc1OC

solubility kinetic [µg/mL]	SMILES
32 (≈ 132 µM)	Cc1cnc(NC(=O)Nc2ccccc2)c(C)n1
6.7 (≈ 20.2 µM)	COc1ccc2oc(C(=O)OCC(=O)NC3CCCC3)c(C)c2c1
> 40.2	COc1ccccc1-c1nc2ccccc2c(=O)n1O
> 41.1	CCOc1ncccc1C(=O)NCc1ccccc1F
0.6 (≈ 1.87 µM)	COC(=O)c1sc(NC(=O)COc2ccccc2C)nc1C
3.2 (≈ 9.24 µM)	O=C(Nc1ccccc1C(=O)NCCc1ccccc1)c1cnccn1
30.8 (≈ 107 µM)	CSc1ncccc1C(=O)Nc1ccc2c(c1)OCO2
35.2 (≈ 126 µM)	Cc1ccc(-c2cnc(-c3ccccc3C(=O)O)o2)cc1
0.9 (≈ 3.07 µM)	COC(=O)c1cccnc1NC(=S)NC1CCCCC1
5.3 (≈ 16.4 µM)	COc1ccc(NC(=O)/C=C/c2cccc(C(F)(F)F)c2)cn1
40.6 (≈ 107 µM)	COc1c(C)cc(C(=O)C2CCCN(C(=O)/C=C/c3ccccn3)C2)cc1C (configuration not stated)
47.7 (≈ 146 µM)	O=C(COC(=O)Cc1ccsc1)Nc1ccc(Cl)cc1F
4.7 (≈ 13.1 µM)	O=C(NC(=S)Nc1cccc(-c2ccc(CO)o2)c1)c1cccs1
2.2 (≈ 6.78 µM)	CCCc1nc2ccccc2c(=O)n1CC(=O)c1ccc(F)cc1
33.6 (≈ 127 µM)	CCC(C)NC(=O)Cn1c(=O)sc2ccccc21 (configuration not stated)
5.4 (≈ 17.6 µM)	Cc1ccc(OCCNC(=O)c2ccc3ccccc3n2)cc1
> 46.7	COc1cc(SC)ccc1C(=O)OCC(=O)NCC(C)C
4.5 (≈ 12.8 µM)	CCOc1ccc(N2CC(C(=O)N3CCc4ccccc43)CC2=O)cc1 (configuration not stated)
> 55.7	CCN(CC(=O)NCc1cccs1)C(=O)c1ccc(Cl)c(Cl)c1
31.8 (≈ 131 µM)	CC(C)NC(=O)COc1cccc2ccccc12
> 41.1	O=C(CCl)Nc1ccccc1C(=O)c1ccccc1
